Results from article PMC8548588, “Cesium tolerance is enhanced by a chemical which binds to BETA-GLUCOSIDASE 23 in Arabidopsis thaliana” (Scientific Reports, 2021).

Biological target: T1, AtβGLU23 (BETA-GLUCOSIDASE 23, PYK10) (Arabidopsis thaliana, UniProt Q9SR37)
T1 construct: gene BGLU23; native protein from total protein extract of 11-day-old seedlings
T1 sequence (Q9SR37 25-524): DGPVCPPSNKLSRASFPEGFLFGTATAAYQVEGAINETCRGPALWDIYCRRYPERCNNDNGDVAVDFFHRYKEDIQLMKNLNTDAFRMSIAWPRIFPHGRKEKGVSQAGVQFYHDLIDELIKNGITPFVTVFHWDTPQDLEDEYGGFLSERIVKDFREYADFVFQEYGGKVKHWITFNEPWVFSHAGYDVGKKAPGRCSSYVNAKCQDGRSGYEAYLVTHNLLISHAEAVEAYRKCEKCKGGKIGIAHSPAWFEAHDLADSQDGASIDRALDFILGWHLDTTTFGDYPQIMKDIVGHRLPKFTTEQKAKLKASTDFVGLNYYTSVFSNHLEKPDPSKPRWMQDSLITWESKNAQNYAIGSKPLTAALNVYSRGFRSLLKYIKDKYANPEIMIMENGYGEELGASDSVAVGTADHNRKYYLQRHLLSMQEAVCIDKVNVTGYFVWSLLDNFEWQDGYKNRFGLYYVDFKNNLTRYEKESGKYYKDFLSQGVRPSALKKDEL
Assay: pull-down from plant extract with photo-cross-linked compound beads, SDS-PAGE, LC-MS/MS
Assay type: binding
Conditions: compound immobilised on photoaffinity-linker-coated agarose beads; 10 mM CsCl, pH 7.6, 4 °C, 18-24 h; control beads without compound

With `Cc1cc(C(=O)Cn2cc(C(F)(F)F)ccc2=O)c(C)n1C(C)C` [CsToAcE1, 1-[2-[2,5-Dimethyl-1-(propan-2-yl)-1H-pyrrol-3-yl]-2-oxoethyl]-5-(trifluoromethyl)-1,2-dihydropyridin-2-one] the “pull-down from plant extract with photo-cross-linked compound beads, SDS-PAGE, L” value was “CsToAcE1, binds to AtβGLU23”.
